“And” between values parts separate entries of the source, which are not always exact repeats. Equal entries are not always repeated. “Also recorded” adds a separate entry of the source. Where two headings read alike, the source gives them in different places.
Key:
[1] = tested on: metastatic triple-negative breast cancer (TNBC); assay: Phase I/II clinical trial (NCT01631552) of sacituzumab govitecan in relapsed/refractory metastatic TNBC; assay type: in vivo, human
Description: Patients with relapsed/refractory TNBC who had previously failed at at least one prior line of therapy were enrolled in a single-arm, multicenter trial (Bardia et al., 2019, N Engl J Med 380:741-51). The present study reports on 108 patients who had failed at least two prior lines of therapy (median three prior therapies) (Bardia et al., 2019, N Engl J Med 380:741-51). […] Of the 108 patients, 107 were female and 1 was male, with a median age of 55. […] Tumor staging was performed by computed tomography (CT) and MRI at baseline, followed up at 8 week intervals from the start of treatment until disease progression.

[2] = tested on: platinum-resistant urothelial carcinoma; assay: Clinical trial of sacituzumab govitecan in 6 patients with metastatic platinum-resistant urothelial carcinoma (PRUC)
Description: Response was assessed using the Response Evaluation Criteria in Solid Tumors, version 1.1.

[3] = tested on: metastatic small-cell lung cancer
From the text: Previous therapy had to be completed at least 4 weeks before enrollment.
Treatment was continued until disease progression, initiation of alternative anticancer therapy, unacceptable toxicity, or withdrawal of consent.
The primary endpoint was the proportion of patients with a confirmed objective response, assessed approximately every 8 weeks until disease progression, by each institution's radiology group or a contracted local radiology service. […] Partial (PR) or complete responses (CR) required confirmation within 4 to 6 weeks after the initial response. Clinical benefit rate (CBR) is defined as those patients with an objective response plus stable disease (SD)≥4 months. Survival was monitored every 3 months until death or withdrawal of consent.
Safety evaluations were conducted during scheduled visits or more frequently if warranted.
The frequency and severity of adverse events (AEs) were defined by MedDRA Preferred Term and System Organ Class (SOC) version 10, with severity assessed by NCI-CTCAE v4.03.
The protocol provided that objective response rates (ORR) were determined for patients who received ≥2 doses (1 cycle) and had their initial 8-week CT assessment. Duration of response is defined in accordance to RECIST 1.1 criteria, with those having an objective response marked from time of the first evidence of response until progression, while stable disease duration is marked from the start of treatment until progression. PFS and OS were defined from the start of treatment until an objective assessment of progression was determined (PFS) or death (OS).

[4] = Pharmacokinetics in patient serum: ELISA for IgG and intact conjugate, HPLC for SN-38; assay type: in vivo, human
Description: SN-38 was measured by HPLC.

[5] = Immunogenicity: serum antibody responses to sacituzumab govitecan, the IgG and SN-38 by ELISA in mSCLC patients; assay type: in vivo, human; conditions: up to 63 doses / up to 22 months of treatment
Description: Positivity required at least 10% of the tumor cells to be stained, with an intensity scored as 1+ (weak), 2+ (moderate), and 3+ (strong). […] Assay sensitivity is 50 ng/mL for the ADC and the IgG, and 170 ng/mL for anti-SN-38 antibody.

[6] = tested on: metastatic triple-negative breast cancer (TNBC); conditions: second line or later; cited from earlier work
[7] = in vivo
[8] = tested on: metastatic urothelial cancer; conditions: cited from earlier work
[9] = 36 patients with objective response
[10] = any grade, 108 patients, 10 mg/kg
[11] = SG given as >3 line, no prior topotecan/irinotecan (N = 9)
[12] = SG given as >3 line, prior topotecan/irinotecan (N = 15)
[13] = patients resistant (N = 19) to 1st line
[14] = patients sensitive (N = 24) to 1st line

sacituzumab govitecan
response rate among patients who had failed previous checkpoint inhibitor therapy ([1]; 10 mg/kg): 44% | median duration of response [1, 9]: 7.7 months | median time to response [1, 9]: 2.0 months | anemia, grade 3 ([1]; 108 patients, 10 mg/kg): 11% | complete responses (CR) ([1]; 108 patients, 10 mg/kg): 2.8% | decreased white blood cell count, grade 4 ([1]; 108 patients, 10 mg/kg): 3% | diarrhea, grade 3 ([1]; 108 patients, 10 mg/kg): 8% | fatigue, grade 3 ([1]; 108 patients, 10 mg/kg): 8% | hyperglycemia, grade 4 ([1]; 108 patients, 10 mg/kg): 1% | median overall survival ([1]; 108 patients, 10 mg/kg): 13.0 months | median progression-free survival ([1]; 108 patients, 10 mg/kg): 5.5 months | nausea, grade 3 ([1]; 108 patients, 10 mg/kg): 6% | neutropenia, grade 3 ([1]; 108 patients, 10 mg/kg): 26% | neutropenia, grade 4 ([1]; 108 patients, 10 mg/kg): 16% | vomiting, grade 3 ([1]; 108 patients, 10 mg/kg): 6% | response rate (CR+PR) ([1]; 108 patients, >=2 prior lines, 10 mg/kg, local assessment): 33.3% | anemia, % of patients [1, 10]: 50% | diarrhea, % of patients [1, 10]: 62% | fatigue, % of patients [1, 10]: 55% | nausea, % of patients [1, 10]: 67% | neutropenia, % of patients [1, 10]: 64% | vomiting, % of patients [1, 10]: 49% | patients with long-term responses of more than 12 months ([1]; as of data cutoff): 6 patients | estimated probability that a patient would exhibit a response ([1]; at 6 months): 59.7% | estimated probability that a patient would exhibit a response ([1]; at 12 months): 27.0% | patients who discontinued treatment due to adverse events ([1]; of 108 patients): Three | grade 4 non-hematologic toxicities ([2]; 6 patients): No grade 4 non-hematologic toxicities were observed | tolerability ([2]; 6 patients): generally well tolerated | patients with a clinically significant response ([2]; of 6 patients): 3 patients | patients with grade 3 toxicities (flank pain and bacteremia) ([2]; of 6 patients): Two | patients with progressive disease ([2]; of 6 patients): 3 patients | patients with partial response ([2]; of 6 patients, RECIST 1.1): Two | reduction in target lesions, patient with progressive disease because of a new lesion ([2]; one patient): 12% | reduction in target lesions, patient with stable disease ([2]; one patient): 28% | reduction in target lesions, best responder ([2]; partial response, including liver metastases): 38% | confirmed PR ([3]; 19 patients resistant to first-line platinum): 16% | confirmed PR ([3]; 24 patients sensitive to first-line platinum): 17% | PD, % ([3]; 43 assessable patients): (35%) | stable disease including unconfirmed PR ([3]; 43 assessable patients (21 patients)): 49% | treatment-related deaths ([3]; 53 patients): No treatment-related deaths were observed | OS, seven confirmed PR patients ([3]; 95% CI 6.2, 20.9): 9.2 months | OS, ten patients with SD >=4 months ([3]; 95% CI 7.5, 22.4): 8.3 months | median PFS, confirmed PR group ([3]; 95% CI 7.6, 21.9): 7.9 months | Duration of confirmed objective response, median ([3]; Kaplan-Meier, 95% CI 3.6, 19.9): 5.7 months | Clinical benefit rate (PR + SD >= 4 months), % ([3]; SG as >=3 line (N = 24)): (38%) | OS median ([3]; SG as >=3 line (N = 24)): 7.0 months | PFS median ([3]; SG as >=3 line (N = 24)): 3.7 months | Clinical benefit rate (PR + SD >= 4 months), % ([3]; SG as second line (N = 19)): (37%) | OS median ([3]; SG as second line (N = 19)): 8.1 months | PFS median ([3]; SG as second line (N = 19)): 3.6 months | Clinical benefit rate (PR + SD >= 4 months), % [3, 11]: (33%) | OS median [3, 11]: 5.5 months | PFS median [3, 11]: 3.7 months | Clinical benefit rate (PR + SD >= 4 months), % [3, 12]: (40%) | OS median [3, 12]: 8.8 months | PFS median [3, 12]: 3.8 months and 3.6 months | grade 3 or 4 anemia ([3]; human, in vivo): 8% | grade 3 or 4 diarrhea ([3]; human, in vivo): 9% | grade 3 or 4 fatigue ([3]; human, in vivo): 13% | grade 3 or 4 hyponatremia ([3]; human, in vivo): 8% | grade 3 or 4 increased alkaline phosphatase ([3]; human, in vivo): 8% | grade 3 or 4 neutropenia ([3]; human, in vivo): 34% | infusion-related reactions ([3]; human, in vivo): No infusion-related reactions were reported | patients with dose reduction ([3]; human, in vivo): 13% | Overall survival, median ([3]; intention-to-treat N = 53): 7.0 months | Progression-free survival, median ([3]; intention-to-treat N = 53): 3.6 months | duration of SD, patient with 17% tumor shrinkage ([3]; one patient with prior CPI): 8.7 months | duration of SD, patient with no change in tumor size ([3]; one patient with prior CPI): 3.7 months | tumor shrinkage, patient with SD ([3]; one patient with prior CPI): 17% | tumor shrinkage on first assessment, patient with unconfirmed PR ([3]; one patient with prior checkpoint inhibitor (CPI)): 54% | Clinical benefit rate (PR + SD >= 4 months), % [3, 13]: (26%) | OS median [3, 13]: 6.2 months | PFS median [3, 13]: 3.6 months | Clinical benefit rate (PR + SD >= 4 months), % [3, 14]: (50%) | OS median [3, 14]: 8.3 months | PFS median [3, 14]: 3.8 months | PR ([3]; second-line setting (3/19)): 16% | median time to response ([3]; seven confirmed PR, range 1.8 to 3.6): 2.0 months | confirmed PR ([3]; starting dose 8 mg/kg, 13 patients): 8% | CBR ([3]; starting dose 10 mg/kg (14/30)): 47% | confirmed PR ([3]; starting dose 10 mg/kg (N = 30)): 20% | Kaplan-Meier-derived median duration of SD ([3]; ten patients with SD >=4 months, 95% CI 5.2, 9.7): 5.6 months | confirmed PR ([3]; third or higher line (N = 24)): 16% | clearance of intact conjugate compared with the IgG ([4]; ELISA): cleared more quickly than the IgG | SN-38 in the serum bound to the IgG ([4]; HPLC, Unbound and TOTAL, non-glucuronidated form): > 95% | clearance of the conjugate from the serum ([4]; patients): ≤ 3 days | immunogenicity (antibodies to sacituzumab govitecan, hRS7 antibody or SN-38) [5]: not immunogenic; also recorded: No neutralizing antibodies | median progression-free survival (PFS) [6]: 5.5 months | overall survival (OS) [6]: 13.0 months | response rate [6]: 33.3% | SN-38 released daily [7]: 50% | CR (complete response) ([8]; 25 assessable patients): 1 patients | ORR ([8]; 25 assessable patients): 36% | PR (partial response) ([8]; 25 assessable patients): 8 patients | ORR, 1 line of prior chemotherapy ([8]; in vivo): 53.8% | ORR, two or more prior therapies ([8]; in vivo): 16.7% | median PFS ([8]; in vivo): 7.2 months
